Test results taken from publication PMC7151106 (Pharmaceutics, 2020).
Where two headings read alike, the source gives them in different places.

Legend:
OAT3 = tested on: T1, OAT3; assay: Substrate specificity / uptake in HEK293-OAT3 cells; format: in vitro ADME; conditions: for Substrate for OAT3: HEK293-OAT3 vs mock, ± 20 μM probenecid
T1 construct: host or cells: HEK293
Experimental: (§1) HEK293-mock cells and HEK293 cells overexpressing OAT1 and OAT3 transporters (HEK293-OAT1 and -OAT3, respectively) were seeded in poly-D-lysine-coated 24-well plates at a density of 4 × 10^5 cells/well and cultured for 24 h in DMEM supplemented with 10% FBS and 5 mM non-essential amino acids at 37 °C in 8% CO2 condition.
(§2) For each experiment, the growth medium was discarded after 24 h, and the attached cells were washed with pre-warmed HBSS and incubated with pre-warmed HBSS for 20 min at 37 °C. To confirm the functionality of OAT1 and OAT3, we measured the uptake of 0.1 µM [^3H]PAH and 0.1 µM [^3H]ES, representative substrates for OAT1 and OAT3, respectively, into in the HEK293-mock cells and HEK293-OAT1 and -OAT3 cells, respectively, for 5 min in the presence and absence of 20 µM probenecid, a typical inhibitor for both OAT1 and OAT3 [8, 9]. The cells were then washed three times with 500 μL of ice-cold HBSS immediately after placing the plates on ice. Subsequently, cells were lysed with 10% sodium dodecyl sulfate and mixed with Optiphase cocktail solution overnight. The radioactivity of the cell lysate was measured using a liquid scintillation counter (Microbeta 2; Perkin Elmer Inc., Boston, MA, USA).
(§3) For the concentration dependency in the uptake of DWP16001, the uptake of DWP16001 in a concentration range of 0.5–50 μM dissolved in HBSS was measured for 5 min at 37 °C in the mock cells and HEK293-OAT1 and -OAT3 cells, respectively. After 5 min, the cells were washed three times with 500 μL of ice-cold HBSS immediately after placing the plates on ice.
(§4) In the concentration-dependent uptake studies, the transporter-mediated uptake of DWP16001 was calculated by the subtraction of the transport rates of DWP16001 into the mock cells from those of the HEK293-OAT1 and -OAT3 cells. Kinetic parameters for the OAT1- and OAT3-mediated transport of DWP16001 were determined using the Michaelis-Menten equation [V = Vmax⋅S/(Km + S)] [10].

[1] = mouse, in vivo, po, 1 mg/kg
Experimental: (§5) An aliquot (30 µL) of each plasma sample was stored at −80 °C until the analysis. […] An aliquot (50 µL) of each kidney homogenate sample was stored at −80 °C until the analysis.
(§6) For the analysis of SGLT2 inhibitors, aliquots of plasma (30 µL) and kidney homogenate (50 µL) were added to 100 μL of aqueous solution of D4-DWP16001 (IS, 20 ng/mL), and vigorously mixed with 500 μL methyl tert-butyl ether (MTBE) for 15 min. After centrifugation at 16,000 g for 5 min, samples were kept for 1 h at −80 °C to make an aqueous layer freeze. An organic upper layer was transferred to a clean tube and evaporated to dryness under a gentle stream of nitrogen. Then, the dried extract was reconstituted in 150 µL of mobile phase, and a 3 µL aliquot of the reconstituent was injected into a liquid chromatography–tandem mass spectrometry (LC–MS/MS) system.
(§7) Pharmacokinetic parameters, such as the area under plasma concentration-time curve from zero to infinity (AUC), were calculated from plasma concentration vs time curves using non-compartment analysis with WinNonlin (version 5.1; Pharsights, Cary, NC, USA). The AUC ratios (i.e., ratios of kidney AUC to plasma AUC) were calculated by dividing the AUC of the three SGLT2 inhibitors in the kidney by the plasma AUC values of the three SGLT2 inhibitors.

OAT1 = tested on: T2, OAT1; assay: Substrate specificity / uptake in HEK293-OAT1 cells; format: in vitro ADME; conditions: for Substrate for OAT1: HEK293-OAT1 vs mock, ± 20 μM probenecid
T2 construct: host or cells: HEK293
Experimental: as §1, §2, §3, §4

SGLT2 [2] = molecular target: T3, SGLT2 (Homo sapiens, UniProt P31639); conditions: read-out: IC50 values of previous reports; cited from earlier work
T3 construct: host or cells: CHO
T3 sequence (P31639 1-672): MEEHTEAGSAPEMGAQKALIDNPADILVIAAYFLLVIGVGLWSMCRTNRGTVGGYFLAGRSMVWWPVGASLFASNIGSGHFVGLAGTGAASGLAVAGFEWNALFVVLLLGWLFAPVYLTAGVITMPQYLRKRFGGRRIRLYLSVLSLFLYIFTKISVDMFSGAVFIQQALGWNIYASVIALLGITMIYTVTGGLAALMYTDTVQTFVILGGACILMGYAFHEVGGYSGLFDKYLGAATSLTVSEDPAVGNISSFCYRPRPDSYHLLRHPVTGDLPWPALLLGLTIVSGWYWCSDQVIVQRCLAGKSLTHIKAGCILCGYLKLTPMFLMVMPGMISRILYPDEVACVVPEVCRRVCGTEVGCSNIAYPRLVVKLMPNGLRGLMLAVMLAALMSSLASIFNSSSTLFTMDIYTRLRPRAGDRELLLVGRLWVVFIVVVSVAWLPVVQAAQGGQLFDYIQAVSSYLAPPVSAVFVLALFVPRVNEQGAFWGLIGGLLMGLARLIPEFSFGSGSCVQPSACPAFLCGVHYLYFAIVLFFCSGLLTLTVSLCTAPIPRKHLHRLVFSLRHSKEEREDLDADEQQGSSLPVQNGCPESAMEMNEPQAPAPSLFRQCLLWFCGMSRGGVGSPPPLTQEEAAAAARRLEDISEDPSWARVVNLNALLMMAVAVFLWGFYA

in vivo = conditions: ICR, mouse, po, 1 mg/kg
Experimental: as §5, §6, §7

[3] = parameters: method as in PMID 27430987; conditions: cited from earlier work
SGLT2 [4] = molecular target: T3, SGLT2; assay: Mode of inhibition on SGLT2 (Dixon plots) in CHO-SGLT2 cells; format: cell-based; conditions: 1, 2.5, 5, 50 μM [14C]AMG
Experimental: The radioactivity of the cell lysate was measured following the same sample preparation method described above.

[5] = Protein binding in 20% mouse kidney homogenate (rapid equilibrium dialysis); conditions: corrected for dilution, 1000 ng/mL, 4 h at 37 °C, mean ± SD, triplicate
Experimental: (§8) Four hours after incubation at 37 °C on a shaking incubator at 300 rpm, aliquots (50 μL) were collected from both the sample and buffer chambers and treated with equal volumes of fresh PBS and blank plasma or blank kidney homogenate, respectively, to match the sample matrices. The matrix-matched sample (100 μL) was added 100 μL of aqueous solution of D4-DWP16001 (IS, 20 ng/mL), and vigorously mixed with 1000 μL MTBE for 15 min. After centrifugation at 16,000 g for 5 min, samples were kept for 1 h at −80 °C. An organic upper layer was transferred to a clean tube and evaporated to dryness under a gentle stream of nitrogen. Then, the dried extract was reconstituted in 300 µL of mobile phase and a 3 µL aliquot of the reconstituent was injected into the LC-MS/MS system.
Kidney protein binding was calculated using the following equations, Equations (2) and (3), and a dilution factor (D as a value of 5) for tissue homogenates was used since we used 20% kidney homogenates [6, 7]. (2) Diluted free drug fraction (fu′)=Drug concentration in buffer chamber/Drug concentration in kidney homogenate chamber, (3) Undiluted free drug fraction (fu)=1/D/(1/fu^′−1)+1/D=fu′×0.2/1−fu′×0.8.

[6] = Pharmacokinetic study and kidney distribution after single oral administration in ICR mice
Experimental: as §5, §6, §7

[7] = Protein binding in mouse plasma (rapid equilibrium dialysis); conditions: 1000 ng/mL, 4 h at 37 °C, mean ± SD, triplicate
Experimental: as §8
Plasma protein binding was calculated using the following Equation (1) [6, 7]. (1) Undiluted free drug fraction (fu)=Drug concentration in buffer chamber/Drug concentration in plasma sample chamber

[8] = logP (partition coefficient of n-octanol/water)
[9] = HEK293-OAT3 minus mock, 0.5–50 μM, 5 min
[10] = HEK293-OAT1 minus mock, 0.5–50 μM, 5 min
[11] = ICR, mouse, plasma, po, 1 mg/kg

OC[C@H]1O[C@@H](c2ccc(F)c(Cc3cc4ccccc4s3)c2)[C@H](O)[C@@H](O)[C@@H]1O [Ipragliflozin, ipragliflozin]
Substrate for OAT3 (OAT3; 2 μM, 5 min): not substrates | AUC72h [1]: 73.65 ± 7.05 μg∙h/g tissue | Substrate for OAT1 (OAT1; 2 μM, 5 min): not substrates | IC50 (SGLT2 [2]): 6.75 to 8.07 nM | AUC(0-inf) (in vivo): 1970 ± 410 ng·h/mL | AUC(0-t) (in vivo): 1960 ± 410 ng·h/mL | Cmax (in vivo): 410 ± 59.1 ng/mL | Kp (in vivo): 38.4 ± 5.3 | Tmax (in vivo): 0.6 ± 0.2 h | Duration of increased urinary glucose excretion post dose [3]: ≥ 18 h | Mode of inhibition on SGLT2 (SGLT2 [4]): reversible and competitive | logP (physchem): 2.56

OC[C@H]1O[C@@H](c2cc(Cc3ccc(C4CC4)cc3)c(Cl)c3c2CCO3)[C@H](O)[C@@H](O)[C@@H]1O [DWP16001]
Increase of uptake in HEK293-OAT3 cells compared with mock cells (OAT3; 2 μM, 5 min): two-fold | Substrate for OAT3 (OAT3; 2 μM, 5 min): a substrate | OAT3-mediated uptake: CLint (OAT3; [9]): 8.6 µL/min | OAT3-mediated uptake: Vmax (OAT3; [9]): 267.9 pmol/min | Km at 5 min (OAT3; human, HEK293-OAT3 minus mock, 0.5–50 μM, read-out: OAT3-mediated uptake: Km): 31.1 µM | Increase of uptake in HEK293-OAT1 cells compared with mock cells (OAT1; 2 μM, 5 min): two-fold | Substrate for OAT1 (OAT1; 2 μM, 5 min): a substrate | OAT1-mediated uptake: CLint (OAT1; [10]): 3.1 µL/min | OAT1-mediated uptake: Vmax (OAT1; [10]): 119.2 pmol/min | Km at 5 min (OAT1; human, HEK293-OAT1 minus mock, 0.5–50 μM, read-out: OAT1-mediated uptake: Km): 38 µM | Protein Binding (% Bound) Kidney [5]: 97.24 ± 0.08 % Bound | Kp ([6]; ICR, mouse, kidney homogenate and plasma, po, 1 mg/kg): 85 ± 16.1 | half-life ([6]; ICR, mouse, kidney, po, 1 mg/kg, t1/2, kidney, single oral 1 mg/kg, ICR mice, mean ± SD, five mice): 126 ± 80.4 h | AUC(0-inf) [6, 11]: 1730 ± 340 ng·h/mL | AUC(0-t) [6, 11]: 1690 ± 340 ng·h/mL | Cmax [6, 11]: 371 ± 109 ng/mL | Tmax [6, 11]: 0.7 ± 0.3 h | half-life ([6]; ICR, mouse, plasma, po, 1 mg/kg, t1/2, plasma, single oral 1 mg/kg, ICR mice, mean ± SD, five mice): 3.8 ± 1.4 h | AUC72h ([6]; kidney, single oral 1 mg/kg, ICR mice, mean ± SD, five mice): 139.2 ± 5.19 μg∙h/g tissue | Mode of inhibition on SGLT2 (SGLT2 [4]): reversible and competitive | Protein Binding (% Bound) Plasma [7]: 98.50 ± 0.20 % Bound | logP [8]: 2.65
